± gives the expanded uncertainty stated by the source.
Assay: molar heat capacity at constant pressure
Details: 101.33 kPa, Crystal

O=P([O-])([O-])[O-].[Er+3] [erbium phosphate]
Details | molar heat capacity at constant pressure [J/K/mol]
48.02 K, Vacuum adiabatic calorimetry | 18.68 ± 0.08
49.64 K, Vacuum adiabatic calorimetry | 19.56 ± 0.08
50 K, Drop calorimetry | 19.7 ± 0.59
51.27 K, Vacuum adiabatic calorimetry | 20.45 ± 0.08
52.9 K, Vacuum adiabatic calorimetry | 21.35 ± 0.08
54.54 K, Vacuum adiabatic calorimetry | 22.23 ± 0.09
55 K, Drop calorimetry | 22.45 ± 0.67
56.17 K, Vacuum adiabatic calorimetry | 23.13 ± 0.09
57.81 K, Vacuum adiabatic calorimetry | 24.03 ± 0.09
59.46 K, Vacuum adiabatic calorimetry | 24.96 ± 0.09
60 K, Drop calorimetry | 25.28 ± 0.76
61.11 K, Vacuum adiabatic calorimetry | 25.9 ± 0.09
62.76 K, Vacuum adiabatic calorimetry | 26.86 ± 0.09
64.41 K, Vacuum adiabatic calorimetry | 27.81 ± 0.1
65 K, Drop calorimetry | 28.13 ± 0.84
66.06 K, Vacuum adiabatic calorimetry | 28.75 ± 0.1
67.72 K, Vacuum adiabatic calorimetry | 29.67 ± 0.1
69.38 K, Vacuum adiabatic calorimetry | 30.58 ± 0.1
70 K, Drop calorimetry | 30.96 ± 0.93
71.24 K, Vacuum adiabatic calorimetry | 31.56 ± 0.1
73.31 K, Vacuum adiabatic calorimetry | 32.73 ± 0.11
75 K, Drop calorimetry | 33.73 ± 1
75.38 K, Vacuum adiabatic calorimetry | 33.9 ± 0.11
77.44 K, Vacuum adiabatic calorimetry | 35.09 ± 0.11
78.64 K, Vacuum adiabatic calorimetry | 35.5 ± 0.11
79.51 K, Vacuum adiabatic calorimetry | 36.27 ± 0.11
80 K, Drop calorimetry | 36.43 ± 1.1
81 K, Vacuum adiabatic calorimetry | 37.03 ± 0.11
81.57 K, Vacuum adiabatic calorimetry | 37.33 ± 0.12
83.05 K, Vacuum adiabatic calorimetry | 38 ± 0.12
83.64 K, Vacuum adiabatic calorimetry | 38.24 ± 0.12
85 K, Drop calorimetry | 39.03 ± 1.2
85.11 K, Vacuum adiabatic calorimetry | 38.94 ± 0.12
85.72 K, Vacuum adiabatic calorimetry | 39.22 ± 0.12
87.17 K, Vacuum adiabatic calorimetry | 40.21 ± 0.12
87.79 K, Vacuum adiabatic calorimetry | 40.58 ± 0.12
89.22 K, Vacuum adiabatic calorimetry | 41.36 ± 0.12
89.86 K, Vacuum adiabatic calorimetry | 41.58 ± 0.12
90 K, Drop calorimetry | 41.53 ± 1.2
91.28 K, Vacuum adiabatic calorimetry | 42.3 ± 0.24
91.94 K, Vacuum adiabatic calorimetry | 42.51 ± 0.24
93.33 K, Vacuum adiabatic calorimetry | 43.21 ± 0.24
94.02 K, Vacuum adiabatic calorimetry | 43.42 ± 0.24
95 K, Drop calorimetry | 43.93 ± 1.3
95.39 K, Vacuum adiabatic calorimetry | 44.16 ± 0.24
96.11 K, Vacuum adiabatic calorimetry | 44.4 ± 0.24
97.45 K, Vacuum adiabatic calorimetry | 45.11 ± 0.25
99.5 K, Vacuum adiabatic calorimetry | 46.06 ± 0.25
100 K, Drop calorimetry | 46.24 ± 1.4
102.17 K, Vacuum adiabatic calorimetry | 47.11 ± 0.25
105.46 K, Vacuum adiabatic calorimetry | 48.46 ± 0.25
108.74 K, Vacuum adiabatic calorimetry | 50.01 ± 0.25
110 K, Drop calorimetry | 50.59 ± 1.5
112.02 K, Vacuum adiabatic calorimetry | 51.4 ± 0.25
115.31 K, Vacuum adiabatic calorimetry | 52.75 ± 0.25
118.6 K, Vacuum adiabatic calorimetry | 54.1 ± 0.25
120 K, Drop calorimetry | 54.66 ± 1.6
121.89 K, Vacuum adiabatic calorimetry | 55.38 ± 0.26
125.18 K, Vacuum adiabatic calorimetry | 56.65 ± 0.26
128.48 K, Vacuum adiabatic calorimetry | 57.9 ± 0.26
130 K, Drop calorimetry | 58.5 ± 1.8
131.77 K, Vacuum adiabatic calorimetry | 59.15 ± 0.26
135.06 K, Vacuum adiabatic calorimetry | 60.36 ± 0.26
138.35 K, Vacuum adiabatic calorimetry | 61.56 ± 0.26
140 K, Drop calorimetry | 62.15 ± 1.9
141.64 K, Vacuum adiabatic calorimetry | 62.75 ± 0.26
144.92 K, Vacuum adiabatic calorimetry | 63.93 ± 0.26
148.21 K, Vacuum adiabatic calorimetry | 65.06 ± 0.27
150 K, Drop calorimetry | 65.63 ± 2
151.5 K, Vacuum adiabatic calorimetry | 66.19 ± 0.27
154.79 K, Vacuum adiabatic calorimetry | 67.31 ± 0.27
158.07 K, Vacuum adiabatic calorimetry | 68.34 ± 0.27
160 K, Drop calorimetry | 68.95 ± 2.1
161.36 K, Vacuum adiabatic calorimetry | 69.45 ± 0.27
164.64 K, Vacuum adiabatic calorimetry | 70.45 ± 0.27
167.92 K, Vacuum adiabatic calorimetry | 71.48 ± 0.27
170 K, Drop calorimetry | 72.09 ± 2.2
171.18 K, Vacuum adiabatic calorimetry | 72.5 ± 0.27
174.46 K, Vacuum adiabatic calorimetry | 73.47 ± 0.27
177.73 K, Vacuum adiabatic calorimetry | 74.42 ± 0.27
180 K, Drop calorimetry | 75.06 ± 2.2
181 K, Vacuum adiabatic calorimetry | 75.35 ± 0.28
184.26 K, Vacuum adiabatic calorimetry | 76.23 ± 0.28
187.53 K, Vacuum adiabatic calorimetry | 77.14 ± 0.28
190 K, Drop calorimetry | 77.87 ± 2.3
190.79 K, Vacuum adiabatic calorimetry | 77.99 ± 0.28
194.05 K, Vacuum adiabatic calorimetry | 78.87 ± 0.28
197.31 K, Vacuum adiabatic calorimetry | 79.82 ± 0.28
200 K, Drop calorimetry | 80.51 ± 2.4
200.56 K, Vacuum adiabatic calorimetry | 80.61 ± 0.28
204.21 K, Vacuum adiabatic calorimetry | 81.51 ± 0.28
208.26 K, Vacuum adiabatic calorimetry | 82.53 ± 0.28
210 K, Drop calorimetry | 83.03 ± 2.5
212.31 K, Vacuum adiabatic calorimetry | 83.53 ± 0.28
216.35 K, Vacuum adiabatic calorimetry | 84.52 ± 0.28
220 K, Drop calorimetry | 85.43 ± 2.6
220.38 K, Vacuum adiabatic calorimetry | 85.53 ± 0.29
228.3 K, Vacuum adiabatic calorimetry | 87.52 ± 0.29
230 K, Drop calorimetry | 87.73 ± 2.6
232.31 K, Vacuum adiabatic calorimetry | 88.39 ± 0.29
236.31 K, Vacuum adiabatic calorimetry | 89.17 ± 0.29
240 K, Drop calorimetry | 89.95 ± 2.7
240.3 K, Vacuum adiabatic calorimetry | 90.08 ± 0.29
244.27 K, Vacuum adiabatic calorimetry | 90.89 ± 0.29
248.24 K, Vacuum adiabatic calorimetry | 91.71 ± 0.29
250 K, Drop calorimetry | 92.08 ± 2.8
252.19 K, Vacuum adiabatic calorimetry | 92.54 ± 0.29
256.13 K, Vacuum adiabatic calorimetry | 93.34 ± 0.29
260 K, Drop calorimetry | 94.13 ± 2.8
260.05 K, Vacuum adiabatic calorimetry | 94.13 ± 0.29
263.96 K, Vacuum adiabatic calorimetry | 94.97 ± 0.3
267.82 K, Vacuum adiabatic calorimetry | 95.68 ± 0.3
270 K, Drop calorimetry | 96.08 ± 2.9
271.7 K, Vacuum adiabatic calorimetry | 96.34 ± 0.3
275.56 K, Vacuum adiabatic calorimetry | 97.1 ± 0.3
279.36 K, Vacuum adiabatic calorimetry | 97.78 ± 0.3
280 K, Drop calorimetry | 97.93 ± 2.9
283.13 K, Vacuum adiabatic calorimetry | 98.4 ± 0.3
286.87 K, Vacuum adiabatic calorimetry | 99.05 ± 0.3
290 K, Drop calorimetry | 99.69 ± 3
290.33 K, Vacuum adiabatic calorimetry | 99.68 ± 0.3
294.03 K, Vacuum adiabatic calorimetry | 100.3 ± 0.3
297.69 K, Vacuum adiabatic calorimetry | 101 ± 0.3
300 K, Drop calorimetry | 101.4 ± 3
301.33 K, Vacuum adiabatic calorimetry | 101.7 ± 0.3
305.3 K, Vacuum adiabatic calorimetry | 102.4 ± 0.3
310 K, Drop calorimetry | 103 ± 3.1
311.36 K, Vacuum adiabatic calorimetry | 103.5 ± 0.3
318.34 K, Vacuum adiabatic calorimetry | 104.6 ± 0.3
320 K, Drop calorimetry | 104.8 ± 3.1
325.26 K, Vacuum adiabatic calorimetry | 105.6 ± 0.3
330 K, Drop calorimetry | 106.5 ± 3.2
332.11 K, Vacuum adiabatic calorimetry | 106.5 ± 0.3
338.88 K, Vacuum adiabatic calorimetry | 107.5 ± 0.3
340 K, Drop calorimetry | 108.2 ± 3.2
345.58 K, Vacuum adiabatic calorimetry | 108.5 ± 0.3
350 K, Drop calorimetry | 109.8 ± 3.3
400 K, Drop calorimetry | 116.9 ± 3.5
450 K, Drop calorimetry | 122.8 ± 3.7
500 K, Drop calorimetry | 127.7 ± 3.8
550 K, Drop calorimetry | 131.8 ± 4
600 K, Drop calorimetry | 135.4 ± 4.1
650 K, Drop calorimetry | 138.4 ± 4.2
700 K, Drop calorimetry | 141 ± 4.2
750 K, Drop calorimetry | 143.3 ± 4.3
800 K, Drop calorimetry | 145.3 ± 4.4
850 K, Drop calorimetry | 147.1 ± 4.4
900 K, Drop calorimetry | 148.8 ± 4.5
950 K, Drop calorimetry | 150.2 ± 4.5
1000 K, Drop calorimetry | 151.6 ± 4.5
1050 K, Drop calorimetry | 152.8 ± 4.6
1100 K, Drop calorimetry | 154 ± 4.6
1150 K, Drop calorimetry | 155.1 ± 4.7
1200 K, Drop calorimetry | 156.1 ± 4.7
1250 K, Drop calorimetry | 157.1 ± 4.7
1300 K, Drop calorimetry | 158.1 ± 4.7
1350 K, Drop calorimetry | 158.9 ± 4.8
1400 K, Drop calorimetry | 159.8 ± 4.8
1450 K, Drop calorimetry | 160.6 ± 4.8
1500 K, Drop calorimetry | 161.4 ± 4.8
1550 K, Drop calorimetry | 162.2 ± 4.9
1600 K, Drop calorimetry | 162.9 ± 4.9
